Literature values as cited in US6093730A, “Substituted isoquinoline-3-carboxamides, their preparation and their use as pharmaceuticals” (Hoechst Marion Roussel Deutschland GmbH, priority 1997, dated 2000).

Tests used:
collagen biosynthesis = conditions: Franklin et al.; cited from earlier work
liver = conditions: rats; Franklin 1997; cited from earlier work

Structure (SMILES): O=C(O)CNC(=O)c1ncc2cc(Br)ccc2c1O [N-((7-bromo-4-hydroxy-isoquinolin-3-yl)carbonyl)glycine]
- in-vivo activity on collagen biosynthesis (collagen biosynthesis): in-vivo inhibition of collagen biosynthesis
- toxic action on the liver (liver): toxic action on the liver (steatosis)
